Reference: article PMC6406907, “A H2AX–CARP-1 Interaction Regulates Apoptosis Signaling Following DNA Damage” (Cancers, 2019)
No end group written: not given here. HA = not defined here

How the values were obtained:
[1] = test system: endogenous CARP-1; assay: Anti-EGFP co-immunoprecipitation with endogenous CARP-1; type: cell-based, human; details: MDA-MB-468 stable subline, anti-EGFP IP, anti-CARP-1 (α2) WB; Figure 5D
Experimental: Logarithmically growing cells were either untreated or treated with different agents for various time periods. The cells were lysed to prepare protein extracts. IP was carried out by incubating approximately 1 mg of the protein lysate with appropriate antibodies. The immunoprecipitates were then analyzed by SDS-PAGE, followed by WB with respective, interacting protein. For Gst-pulldown, Gst-H2AX or various His-TAT-HA-tagged CARP-1 peptides were generated in Escherichia coli (E. coli) BL21 cells essentially as described by us previously. Briefly, the competent E. coli BL-21 (DE3) pLysS cells were transformed separately with various recombinant pGEX-4T-1 or pTAT-HA constructs. The transformed cells were then subjected to selection by combined presence of ampicillin and chloramphenicol; various isolates for each transformation were obtained and bacterial lysates were characterized for expression of fusion peptides. Cells from each isolate were grown in 4 mL of LB medium containing ampicillin only until the optical density (OD)600 reached 0.4–0.8. Expression of fusion peptides was induced over 2–4 h incubation periods after Isopropyl β-D-1-thiogalactopyranoside (IPTG) addition. […]
Figure 5 Fine Mapping of H2AX/CARP-1 interacting epitopes. […] Following stringent washing, the bound proteins were analyzed with WB using anti-HA (upper) or anti-Gst (middle) antibodies. […]

[2] = test system: MDA-MB-468 cells; assay: Transduction/localization of TAT-tagged proteins, MDA-MB-468; type: cell-based, human; details: MDA-MB-468, 300 μg/mL, confocal
Experimental: Cells were plated onto chamber slides one day before treatment. Following treatment of cells with respective compounds, the adherent cells were fixed with 5% formaldehyde for 10 min and then washed with phosphate buffered saline (PBS). Samples were blocked (0.5% NP-40, 5% milk powder, 1% fetal bovine serum) for 30 min. After a single wash with PBS, cells were incubated with primary antibodies for 45 to 60 min. Coverslips were washed with PBS and then incubated with secondary antibodies for another 45 to 60 min. They were then washed with PBS and mounted with 0.1 μg/mL 4′,6′-diamidino-2-phenylindole (DAPI) containing mounting solution. […]
We further tested whether and the extent to which transient and ectopic expression of CARP-1 (636–650) peptide would also interfere with the cell-growth inhibition by Adriamycin. […] The wild-type MDA-MB-468 or HeLa cells were pre-incubated with His-TAT-HA-EGFP or His-TAT-HA-CARP-1 (636–650) proteins, and presence of GFP and CARP-1 (636–650) was determined by immuno-cytochemical staining followed by photography using a confocal microscope as above. […]
Figure S9. […] Multiple cells from each of the confocal images in the γH2AX column of Figure 8C were subjected to quantitation for levels of γH2AX. The quantitation of the images of stained cells was carried out by using ImageJ software (imagej.nih.gov/ij/plugins/track/jacop2). […]

Row | Substance | in-cell interaction with endogenous CARP-1 [1] | cellular localization after transduction [2]
1 | EGFP-H2AX (1–35): EGFP-tagged fusion protein stably expressed in MDA-MB-468 and HeLa sublines (MSGRGKTGGKARAKAKSRSSRAGLQFPVGRVHRLL; also: EGFP fusion, end not given here; UniProt P16104 1-35, looked up, fragment) | robust, in vivo interaction | 
2 | His-TAT-HA-CARP-1 (636–650): His-TAT-HA-tagged CARP-1 (636–650) peptide, >95% purity, commercially synthesized ({His-TAT-HA}-PKTMKVNDLRKELES; reading uncertain; UniProt Q8IX12 636-650, looked up, fragment) |  | predominantly present in the cytoplasmic region
